Measurements published in PMC7744152, “New potent steroid sulphatase inhibitors based on 6-(1-phenyl-1H-1,2,3-triazol-4-yl)naphthalen-2-yl sulphamate derivatives” (Journal of Enzyme Inhibition and Medicinal Chemistry, 2020).

Experiments:
Type in all cases: biochemical
steroid sulphatase (STS) [1] = target: T1, steroid sulphatase (STS) (Homo sapiens, UniProt P08842); test: radiolabelled [3H] oestrone sulphate hydrolysis, purified placental STS, […] inhibitor
T1 construct: STS enzyme extracted from human placenta and purified
T1 sequence (P08842 22-583): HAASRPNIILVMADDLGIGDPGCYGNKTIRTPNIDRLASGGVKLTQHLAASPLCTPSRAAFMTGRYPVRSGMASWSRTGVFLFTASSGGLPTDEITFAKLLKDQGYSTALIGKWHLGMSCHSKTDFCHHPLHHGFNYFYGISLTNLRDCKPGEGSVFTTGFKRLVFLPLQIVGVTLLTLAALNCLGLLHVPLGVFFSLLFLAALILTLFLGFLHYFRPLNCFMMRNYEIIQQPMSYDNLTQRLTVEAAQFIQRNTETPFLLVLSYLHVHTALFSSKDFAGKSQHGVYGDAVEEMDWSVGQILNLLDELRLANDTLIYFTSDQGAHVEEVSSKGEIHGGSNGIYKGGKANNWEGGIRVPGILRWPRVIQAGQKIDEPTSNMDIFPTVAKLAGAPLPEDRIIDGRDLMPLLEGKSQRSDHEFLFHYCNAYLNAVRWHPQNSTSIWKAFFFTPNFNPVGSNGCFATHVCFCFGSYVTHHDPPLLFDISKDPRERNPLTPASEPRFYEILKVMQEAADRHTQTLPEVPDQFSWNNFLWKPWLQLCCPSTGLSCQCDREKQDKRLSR

steroid sulphatase (STS) [2] = target: T1, steroid sulphatase (STS); test: radiolabelled [3H] oestrone sulphate hydrolysis, purified placental STS, […] inhibitor (also MCF-7 cell IC50 […])
steroid sulphatase (STS) [3] = target: T1, steroid sulphatase (STS); test: as above; remark: listed apart in the source
steroid sulphatase (STS) [4] = target: T1, steroid sulphatase (STS); test: as above; remark: listed apart in the source

| Structure (SMILES) | remaining activity at 0.5 µM (steroid sulphatase (STS) [1]) [%] | also measured |
| --- | --- | --- |
| NS(=O)(=O)Oc1ccc2cc(-c3cn(-c4cccc(F)c4)nn3)ccc2c1 [3B, 6-(1-(3-Fluorophenyl)-1H-1,2,3-triazol-4-yl)naphthalen-2-yl sulphamate] | 17.4 | – |
| NS(=O)(=O)Oc1ccc2cc(-c3cn(-c4cccc(Cl)c4)nn3)ccc2c1 [3C, 6-(1-(3-Chlorophenyl)-1H-1,2,3-triazol-4-yl)naphthalen-2-yl sulphamate] | 9.66 | – |
| NS(=O)(=O)Oc1ccc2cc(-c3cn(-c4cccc(Br)c4)nn3)ccc2c1 [3D, 6-(1-(3-Bromophenyl)-1H-1,2,3-triazol-4-yl)naphthalen-2-yl sulphamate] | 9.62 | – |
| NS(=O)(=O)Oc1ccc2cc(-c3cn(-c4ccc(Cl)cc4)nn3)ccc2c1 [3F, 6-(1-(4-Chlorophenyl)-1H-1,2,3-triazol-4-yl)naphthalen-2-yl sulphamate] | 18.7 | – |
| NS(=O)(=O)Oc1ccc2cc(-c3cn(-c4ccc(Br)cc4)nn3)ccc2c1 [3G, 6-(1-(4-Bromophenyl)-1H-1,2,3-triazol-4-yl)naphthalen-2-yl sulphamate] | 23.1 | – |
| NS(=O)(=O)Oc1ccc2cc(-c3cn(-c4ccccc4Cl)nn3)ccc2c1 [3I] | – | remaining activity at 0.5 µM (steroid sulphatase (STS) [2]): 16.9% |
| NS(=O)(=O)Oc1ccc2cc(-c3cn(-c4ccccc4Br)nn3)ccc2c1 [3J, 6-(1-(2-Bromophenyl)-1H-1,2,3-triazol-4-yl)naphthalen-2-yl sulphamate] | 15.9 | – |
| NS(=O)(=O)Oc1ccc2cc(-c3cn(-c4cc(F)cc(F)c4)nn3)ccc2c1 [3K, 6-(1-(3,5-Difluorophenyl)-1H-1,2,3-triazol-4-yl)naphthalen-2-yl sulphamate] | – | remaining activity at 0.5 µM (steroid sulphatase (STS) [3]): 14% |
| NS(=O)(=O)Oc1ccc2cc(-c3cn(-c4ccc(F)c(F)c4F)nn3)ccc2c1 [3L, 6-(1-(2,3,4-Trifluorophenyl)-1H-1,2,3-triazol-4-yl)naphthalen-2-yl sulphamate] | – | remaining activity at 0.5 µM (steroid sulphatase (STS) [4]): 7.98% |
